# From patent publication US7674902B2, “Luminescent metal complexes for monitoring renal function” (priority 2004, dated 2010)
# Test: Biodistribution of radiolabelled DTPA complexes in normal rats, compared with 99mTc-DTPA positive control
# Format: in vivo
# Settings: normal Sprague-Dawley rats; 111In-labelled complex
# Experimental: Commercially available DTPA kit (Draximage Co., Ontario, Canada) was labeled with ^99mTc by the standard procedure described in the package insert that was supplied with the kit, and was administered to Sprague-Dawley rats (3 rats for each time point of 15 minutes, 60 minutes, 120 minutes, and 24 hours).
# A mixture of the stock solution of DTPA-mono(7-amino-4-methylcoumarin)amide ligand (1 mg/mL in 0.5M sodium acetate buffer, 100 μL), obtained from Gunma University, Japan (Ozaki, et. al. Reference 30), sodium acetate solution (0.5M, 100 μL), and commercially available ^111InCl3 solution (0.1M HCl, 100-200 μCi/100 μL) was adjusted to pH 4.5 and incubated at ambient temperature for 30 minutes. The resulting indium complex was purified by reverse phase HPLC and administered to Sprague-Dawley rats. The biodistribution was carried out in the same manner as that of ^99mTc-DTPA in Example 1 (FIG. 8).
row,Substance,hepatobiliary clearance (relative to reference complex)
1,^111In-HMDTPA-1-naphthylurethane complex [Example 5],much higher hepatobiliary clearance

# Same assay, conditions: normal Sprague-Dawley rats; time points 15 minutes, 60 minutes, 120 minutes, 24 hours; 111In-labelled complex
row,Substance,biodistribution of the complex (comparison with reference complex)
1,^111In-DTPA-bis(salicylamide) complex [Example 6],nearly identical to that of ^99mTc-DTPA
2,^111In-DTPA-mono(1-naphthylamide) complex [Example 4],nearly identical to that of ^99mTc-DTPA
3,^111In-DTPA-mono(pyrazinylamino)ethylamide complex [Example 7],nearly identical to that of ^99mTc-DTPA
4,^111In-DTPA-mono(quinoxanylamino)ethylamide complex [Example 8],nearly identical to that of the DTPA-coumarin derivative in Example 2
5,^111In-DTPA-mono(salicylamide) complex [Example 3],nearly identical to that of ^99mTc-DTPA
